What was measured:
[1] = Solubility in purified water; format: physicochemical; settings: thermodynamic from solid, compound added stepwise to 2 mL until hypersaturated or 2.0 g added
Experimental: About […] of the compound (A or B or C) to be tested was weighed and placed into a 10 mL sample tube, 2 mL of purified water was added, and the mixture was mixed well. In case of complete dissolution, about […] of the compound to be tested was replenished continuously, and the mixture was mixed well until a hypersaturated state was reached or the compound to be tested was added to 2.0 g. If the compound to be tested was added to […] and is still completely dissolved, the solubility of the compound to be tested in water was recorded as >1.0 g/mL.

[2] = test system: inflammatory factor MCP-1 mRNA in H9c2 cells; test: TNF-α-induced H9c2 cell inflammation model, MCP-1 mRNA by RT-PCR; format: cell-based, rat; settings: 2 h pre-incubation, 10 ng/mL TNF-α for 1 h, compounds A and C 5/1/0.2 mM, compound B 3/1/0.2 mM, FIG. 8
Experimental: The pH value was adjusted to 7.2 with 1 M HCl, and ultrapure water was used to reach the constant volume of 1 L. Finally, the medium was filtered into a sterile container by membrane filtration using a 0.22 m constant-volume filter. (After filtration, the pH value might rise by 0.1 to 0.3 units) • 1.3 Formulation of positive control drug: a dexamethasone solution: […] of dexamethasone was added to 5 mL of DMSO and shaken for dissolution. 1000×solution (10 mM) was obtained. The solution was aliquoted and stored in a refrigerator at −20° C. • 1.4 Formulation of test sample solution: […]
Compound A/compound B/compound C: the test sample was weighed at an appropriate mass and dissolved in DMSO to formulate a solution with a final concentration of 1 M, and the solution was aliquoted and then stored at −20° C. • 1.5 Penicillin/streptomycin biantibiotics solution: 8 million units/vial penicillin plus 40 mL of ultrapure water were mixed well, 1 g/vial streptomycin plus 50 mL of ultrapure water were mixed well, the two mixtures were mixed at a volume ratio of 1:1 to obtain 100×penicillin-streptomycin biantibiotics solution (containing 100,000 units/mL penicillin and 10 mg/mL streptomycin). After filtration through a 0.22 m sterile microfiltration membrane, the solution was aliquoted at 10 mL/tube, and stored in a refrigerator at −20° C. • 1.6 Formulation of buffer solution: • PBS: […] of NaCl, […] of KCl, […] of Na2HPO4 and […] of KH2PO4 were respectively weighed and placed in a 1 L volumetric flask; ultrapure water was added to 900 mL; the pH was adjusted to 7.2 with concentrated hydrochloric acid; and the volume was finalized to 1 L. The mixture was stored at room temperature. • 2. […]

Structure (SMILES) | solubility [1] [mg/mL] | inhibition of the elevation of the mRNA level of the inflammatory factor MCP-1 [2]
CC[N+]([O-])(CC)CCOC(=O)c1ccccc1OC(C)=O [compound A] | > 1000 | dose-dependent inhibition
CCN(CC)CCOC(=O)c1ccccc1OC(=O)CCl [compound B] | > 1000 | dose-dependent inhibition
CCN(CC)CCOC1(C)OC(=O)c2ccccc2O1 (stereo not drawn) [compound C] | > 1000 | dose-dependent inhibition

— patent US12454506B2, “Benzoate derivatives” (ZHEJIANG YUEJIA PHARMACEUTICALS CO., LTD, priority 2022, dated 2025)
